Experimental findings from US12673954B2 (BRISTOL-MYERS SQUIBB COMPANY, priority 2021, dated 2026) are described below.

Like-named read-outs stand apart in the source and are kept apart here.

As usually defined, the EC50 is the midpoint of the concentration-response curve.

Experiment [1] concerns IRF pathway, THP1-Dual™ cells. The experiment is described as follows: STING reporter assay in THP1-Dual cells, IRF pathway (Lucia luciferase, QUANTI-Luc). In kind it is cell-based, human. The following applies: THP1-Dual cells, 10% human plasma, 20 hours, Lucia luciferase, 100% activation = 100 μM cGAMP, read-out: IRF (EC50 μM). An excerpt:
(§1) THP1-Dual™ cells were derived from the human THP-1 monocyte cell line by stable integration of two inducible reporter constructs. To this end, THP1-Dual™ cells allow the simultaneous study of the NF-κB pathway, by monitoring the activity of SEAP, and the IRF pathway by assessing the activity of a secreted luciferase (Lucia). Both reporter proteins are readily measurable in the cell culture supernatant when using QUANTI-Blue™, a SEAP detection reagent, and QUANTI-Luc™, a luciferase detection reagent.
(§2) THP1-Dual™ cells induce the activation of NF-κB in response to STING agonists. They also trigger the IRF pathway upon stimulation with STING agonists, such as cGAMP. Here, the THP-1-Dual cells were used to assess STING specific binders for function on the cellular level.
(§3) Serial dilutions of compounds in DMSO were added to low volume 384 well plates at 100 nl/well using an ECHO acoustic dispenser (Labcyte, model 550) to achieve final starting concentration of 100 μM in cell suspension. […] One column of the plate was reserved for treatment with cGAMP at 100 μM for 100% activation calculation and one column for no treatment (DMSO only) for baseline activation. Plates were then incubated in 37° C. incubator at 5% CO2 for 20 hours.
(§4) Plates were read on the Envision (Perkin Elmer) at 620 nm wavelength (OD620). In the luciferase assay, 5 μl of Quantiluc (Invivogen, Rep-qlc2) is added to white 384 well plates seeded with THP1 cells and read at 5 minutes on the Envision (Perkin Elmer) using a luminescence protocol (RLU). 100% activation was determined by value (RLU) of THP-1 Dual STING cells stimulated with 100 μM cGAMP (Invivogen, cat #TLRL-NACGA23-5).

The subject of experiment [2] is NF-κB pathway, THP1-Dual™ cells. Description: STING reporter assay in THP1-Dual cells, NF-κB pathway (SEAP, QUANTI-Blue). In kind it is cell-based, human. The following applies: THP1-Dual cells, 10% human plasma, 20 hours, SEAP, 100% activation = 100 μM cGAMP, read-out: NFkB (EC50 μM).
Excerpt: as §1, §2, §3, §4
In general terms: Reporter assays use an easily measured gene product as a stand-in for the process of interest.

For the molecule `CCOC(OC(=O)c1cc(F)cc2cc(CNC(=O)c3cnn4cccnc34)oc12)C(F)F` (single isomer, unassigned) [EXAMPLE 323, 1-Ethoxy-2,2-difluoroethyl 5-fluoro-2-((pyrazolo[1,5-a]pyrimidine-3-carboxamido)methyl)benzofuran-7-carboxylate], the EC50 worked out at 0.75 µM in experiment [1] (Homo sapiens, THP1-Dual, 20 h) and 0.7 µM in experiment [2].

Take `CCOC(OC(=O)c1cc(F)cc2cc(CNC(=O)c3cnn4cccnc34)oc12)C(F)F` (single isomer, unassigned) [EXAMPLE 324, 1-Ethoxy-2,2-difluoroethyl 5-fluoro-2-((pyrazolo[1,5-a]pyrimidine-3-carboxamido)methyl)benzofuran-7-carboxylate]: the figures for the 50% effective concentration (EC50) in experiment [1] and in experiment [2] were 1.5 µM and 1.7 µM, respectively.

As for `CC(NC(=O)c1cnn2cccnc12)c1cc2cc(F)cc(C(=O)OCC(F)(F)F)c2o1` (single isomer, unassigned) [EXAMPLE 327, 2,2,2-Trifluoroethyl 5-fluoro-2-(1-(pyrazolo[1,5-a]pyrimidine-3-carboxamido)ethyl)benzofuran-7-carboxylate], the results for the EC50 in experiment [1] and in experiment [2] were 73 µM and 79 µM, respectively.

For the molecule `CC(NC(=O)c1cnn2cccnc12)c1cc2cc(F)cc(C(=O)OCC(F)(F)F)c2o1` (single isomer, unassigned) [EXAMPLE 328, 2,2,2-Trifluoroethyl 5-fluoro-2-(1-(pyrazolo[1,5-a]pyrimidine-3-carboxamido)ethyl)benzofuran-7-carboxylate], the 50% effective concentration (EC50) in experiment [1] amounted to 1.3 µM; in experiment [2] it was 1.5 µM.

Take `CC(OC(=O)c1cc(Cl)cc2cc(CNC(=O)c3cnn4cccnc34)oc12)C(F)(F)F` (single isomer, unassigned) [EXAMPLE 329, 1,1,1-Trifluoropropan-2-yl 5-chloro-2-((pyrazolo[1,5-a]pyrimidine-3-carboxamido)methyl)benzofuran-7-carboxylate]: the EC50 worked out at 0.88 µM in experiment [1] and 0.89 µM in experiment [2].

In the case of `CC(OC(=O)c1cc(Cl)cc2cc(CNC(=O)c3cnn4cccnc34)oc12)C(F)(F)F` (single isomer, unassigned) [EXAMPLE 330, 1,1,1-Trifluoropropan-2-yl 5-chloro-2-((pyrazolo[1,5-a]pyrimidine-3-carboxamido)methyl)benzofuran-7-carboxylate], the figures for the concentration for a half-maximal effect (EC50) in experiment [1] and in experiment [2] were 4.7 µM and 5.5 µM, respectively.

In the case of `COC(OC(=O)c1cc(Cl)cc2cc(CNC(=O)c3cnn4cccnc34)oc12)C(F)(F)F` (single isomer, unassigned) [EXAMPLE 331, 2,2,2-Trifluoro-1-methoxyethyl 5-chloro-2-((pyrazolo[1,5-a]pyrimidine-3-carboxamido)methyl)benzofuran-7-carboxylate], the EC50 in experiment [1] (Homo sapiens, THP1-Dual, 20 h) turned out to be 1.7 µM; in experiment [2] (Homo sapiens, THP1-Dual, 20 h) it was 1.8 µM.

For the molecule `COC(OC(=O)c1cc(Cl)cc2cc(CNC(=O)c3cnn4cccnc34)oc12)C(F)(F)F` (single isomer, unassigned) [EXAMPLE 332, 2,2,2-Trifluoro-1-methoxyethyl 5-chloro-2-((pyrazolo[1,5-a]pyrimidine-3-carboxamido)methyl)benzofuran-7-carboxylate], the EC50 in experiment [1] and in experiment [2] was 1.1 µM throughout.

As for `O=C(OC1CC(c2ccc(F)cc2)C1)c1cc(Cl)cc2cc(CNC(=O)c3cnn4cccnc34)oc12` (single isomer, unassigned) [EXAMPLE 333, 3-(4-Fluorophenyl)cyclobutyl 5-chloro-2-((pyrazolo[1,5-a]pyrimidine-3-carboxamido)methyl)benzofuran-7-carboxylate], the EC50 in experiment [1] (Homo sapiens, THP1-Dual, 20 h) turned out to be 11 µM; in experiment [2] (Homo sapiens, THP1-Dual, 20 h) it was 12 µM.

As for `O=C(OC1CC(c2ccc(F)cc2)C1)c1cc(Cl)cc2cc(CNC(=O)c3cnn4cccnc34)oc12` (single isomer, unassigned) [EXAMPLE 334, 3-(4-Fluorophenyl)cyclobutyl 5-chloro-2-((pyrazolo[1,5-a]pyrimidine-3-carboxamido)methyl)benzofuran-7-carboxylate], the values for the EC50 in experiment [1] and in experiment [2] were 16 µM and 23 µM, respectively.

For `CC(CC(F)(F)F)OC(=O)c1cc(Cl)cc2cc(CNC(=O)c3cnn4cccnc34)oc12` (single isomer, unassigned) [EXAMPLE 335, 4,4,4-Trifluorobutan-2-yl 5-chloro-2-((pyrazolo[1,5-a]pyrimidine-3-carboxamido)methyl)benzofuran-7-carboxylate], the EC50 stood at 3.5 µM in experiment [1] (Homo sapiens, THP1-Dual, 20 h) and 3.5 µM in experiment [2] (Homo sapiens, THP1-Dual, 20 h).

Turning to `CC(CC(F)(F)F)OC(=O)c1cc(Cl)cc2cc(CNC(=O)c3cnn4cccnc34)oc12` (single isomer, unassigned) [EXAMPLE 336, 4,4,4-Trifluorobutan-2-yl 5-chloro-2-((pyrazolo[1,5-a]pyrimidine-3-carboxamido)methyl)benzofuran-7-carboxylate], the values for the concentration giving a half-maximal response (EC50) in experiment [1] and in experiment [2] were 3.2 µM and 2.5 µM, respectively.

As for `COC(OC(=O)c1cc(Br)cc2cc(CNC(=O)c3cnn4cccnc34)oc12)C(F)(F)F` (single isomer, unassigned) [EXAMPLE 339, 2,2,2-Trifluoro-1-methoxyethyl 5-bromo-2-((pyrazolo[1,5-a]pyrimidine-3-carboxamido)methyl)benzofuran-7-carboxylate], the EC50 amounted to 1.8 µM in experiment [1] (Homo sapiens, THP1-Dual, 20 h) and 1.4 µM in experiment [2] (Homo sapiens, THP1-Dual, 20 h).

With `COC(OC(=O)c1cc(Br)cc2cc(CNC(=O)c3cnn4cccnc34)oc12)C(F)(F)F` (single isomer, unassigned) [EXAMPLE 340, 2,2,2-Trifluoro-1-methoxyethyl 5-bromo-2-((pyrazolo[1,5-a]pyrimidine-3-carboxamido)methyl)benzofuran-7-carboxylate], the concentration for a half-maximal effect (EC50) in experiment [1] is 0.91 µM; in experiment [2], 0.92 µM.

Turning to `CC(OC(=O)c1cc(Br)cc2cc(CNC(=O)c3cnn4cccnc34)oc12)C(F)(F)F` (single isomer, unassigned) [EXAMPLE 341, 1,1,1-Trifluoropropan-2-yl 5-bromo-2-((pyrazolo[1,5-a]pyrimidine-3-carboxamido)methyl)benzofuran-7-carboxylate], the half-maximal effective concentration (EC50) in experiment [1] is 1.6 µM; in experiment [2] it was 2.5 µM.

Regarding `CC(OC(=O)c1cc(Br)cc2cc(CNC(=O)c3cnn4cccnc34)oc12)C(F)(F)F` (single isomer, unassigned) [EXAMPLE 342, 1,1,1-Trifluoropropan-2-yl 5-bromo-2-((pyrazolo[1,5-a]pyrimidine-3-carboxamido)methyl)benzofuran-7-carboxylate], the concentration giving a half-maximal response (EC50) turned out to be 7.2 µM in experiment [1] and 6 µM in experiment [2].

For the molecule `COC(OC(=O)c1cc(C)cc2cc(CNC(=O)c3cnn4cccnc34)oc12)C(F)(F)F` (single isomer, unassigned) [EXAMPLE 343, 2,2,2-Trifluoro-1-methoxyethyl 5-methyl-2-((pyrazolo[1,5-a]pyrimidine-3-carboxamido)methyl)benzofuran-7-carboxylate], the EC50 in experiment [1] (Homo sapiens, THP1-Dual, 20 h) was found to be 0.73 µM; in experiment [2] (Homo sapiens, THP1-Dual, 20 h) it was 0.76 µM.

Regarding `COC(OC(=O)c1cc(C)cc2cc(CNC(=O)c3cnn4cccnc34)oc12)C(F)(F)F` (single isomer, unassigned) [EXAMPLE 344, 2,2,2-Trifluoro-1-methoxyethyl 5-methyl-2-((pyrazolo[1,5-a]pyrimidine-3-carboxamido)methyl)benzofuran-7-carboxylate], the EC50 in experiment [1] is 0.63 µM; in experiment [2], 0.76 µM.

Consider `COc1cc(C(=O)OC(C)C(F)(F)F)c2oc(CNC(=O)c3cnn4cccnc34)cc2c1` (single isomer, unassigned) [EXAMPLE 345, 1,1,1-Trifluoropropan-2-yl 5-methoxy-2-((pyrazolo[1,5-a]pyrimidine-3-carboxamido)methyl)benzofuran-7-carboxylate], for which the EC50 in experiment [1] (Homo sapiens, THP1-Dual, 20 h) worked out at 5.7 µM; in experiment [2] (Homo sapiens, THP1-Dual, 20 h), 3.6 µM.

Consider `COc1cc(C(=O)OC(C)C(F)(F)F)c2oc(CNC(=O)c3cnn4cccnc34)cc2c1` (single isomer, unassigned) [EXAMPLE 346, 1,1,1-Trifluoropropan-2-yl 5-methoxy-2-((pyrazolo[1,5-a]pyrimidine-3-carboxamido)methyl)benzofuran-7-carboxylate], for which the EC50 in experiment [1] was 3.2 µM; in experiment [2], 2.3 µM.

Turning to `COC(OC(=O)c1cc(C#N)cc2cc(CNC(=O)c3cnn4cccnc34)oc12)C(F)(F)F` (single isomer, unassigned) [EXAMPLE 347, 2,2,2-Trifluoro-1-methoxyethyl 5-cyano-2-((pyrazolo[1,5-a]pyrimidine-3-carboxamido)methyl)benzofuran-7-carboxylate], the EC50 stood at 3.3 µM in experiment [1] (Homo sapiens, THP1-Dual, 20 h) and 2.3 µM in experiment [2] (Homo sapiens, THP1-Dual, 20 h).
